Assay results reported in US20230063462A1, “SULFONIMIDAMIDE COMPOUNDS AND COMPOSITIONS FOR TREATING CONDITIONS ASSOCIATED WITH NLRP ACTIVITY” (NOVARTIS AG, priority 2019, published 2023).
Read-outs that look alike come from different tables or passages of the source.

Assays:
THP-1 cells [1] = test: hTHP-1 assay: gramicidin-stimulated IL-1β detection in PMA-treated THP-1 cells; assay type: cell-based, human
Experimental: The following protocol is suitable for testing the activity of the compounds disclosed herein.
1. Experimental procedure • 1.1 Cell Culture • 1) Culture THP-1 cells in the complete RPMI-1640 medium with 10% FBS at 37° C., 5% CO2. • 2) Passage the cells every 3 days by inoculating 3×10^5 cells per ml. • 1.2 Compound Preparation • Prepare the 3-fold serial dilution of the compounds with DMSO in a 384-well LDV Microplate using TECAN EVO system to generate the compound source plate with 10 concentrations. […] HC: 100 μM CRID3 (MCC950)+5 μM gramicidin LC: 5 μM Gramicidin. • 1.5 IL-1β Detection • 1) Homogenize the 5× diluent #5 with a vortex and add 1 volume of stock solution in 4 volumes of distilled water. • 2) Thaw 20× stock solution of anti-IL1β-Cryptate-antibody and anti-IL1β XL-antibody. Dilute these two antibodies to 1× with detection buffer #3. • 3) Pre-mix the two ready-to-use antibody solutions just prior to use. • 4) Dispense 4 ul of pre-mixed Anti-IL1β antibodies working solution into all wells. • 5) Seal the plate and incubate overnight at 4° C. • 6) Read the cell plate using EnVison and plot Readout vs. the test compound concentration to calculate the IC50.
2. Data Analysis: • 1. IC50 of compounds can be calculated using the following formulas • Formula for IC50
% inhibition=100−100×[HCave-Readout/(HCave−LCave)] • 2. Fit the normalized data in a dose-response manner using XLfit, and calculate the compound concentration.

THP-1 cells [2] = test: as above; assay type: cell-based, human; conditions: Table B2, 10% FBS
[3] = Homo sapiens, THP-1, Table B1, 2% fetal bovine serum, class symbol, read-out: hTHP-1 IC50
[4] = Table B1, 2% fetal bovine serum, numeric value, read-out: hTHP-1 IC50
[5] = Table B1, 2% fetal bovine serum, class symbol, read-out: hTHP-1 IC50
[6] = Homo sapiens, THP-1, Table B2, 10% FBS, class symbol, read-out: hTHP-1 IC50 in 10% FBS
[7] = Homo sapiens, THP-1, Table B2, 10% FBS, numeric value, read-out: hTHP-1 IC50 in 10% FBS
[8] = Homo sapiens, THP-1, Table B1, 2% fetal bovine serum, numeric value, read-out: hTHP-1 IC50

| SMILES | IC50 (THP-1 cells [1]; [4]) [µM] | IC50 (THP-1 cells [1]; [5]) [µM] | other results |
| --- | --- | --- | --- |
| CC(C)(O)c1ncc(S(=O)(=NC(=O)Nc2c3c(cc4c2CC4)CC3)NC#N)s1 (single isomer, unassigned) [Example 23, (S) or (R)-N-cyano-2-(2-hydroxypropan-2-yl)-N′-(tricyclo[6.2.0.03,6]deca-1,3(6),7-trien-2-ylcarbamoyl)thiazole-5-sulfonimidamide] | 0.0389 |  | IC50 (THP-1 cells [1]; [3]): 0.008 to 0.04 µM |
| CC(C)(O)c1ncc(S(=O)(=NC(=O)Nc2c3c(cc4c2CC4)CC3)NC#N)s1 (single isomer, unassigned) [Example 24, (R) or (S)-N-cyano-2-(2-hydroxypropan-2-yl)-N′-(tricyclo[6.2.0.03,6]deca-1,3(6),7-trien-2-ylcarbamoyl)thiazole-5-sulfonimidamide] | 0.0097 | 0.008 to 0.04 |  |
| CC(C)(O)c1ncc(S(=O)(=NC(=O)Nc2c3c(cc4c2CC4)CCC3)NC#N)s1 (single isomer, unassigned) [Example 25, (S) or (R)-N-cyano-2-(2-hydroxypropan-2-yl)-N′-((2,4,5,6-tetrahydro-1H-cyclobuta[f]inden-3-yl)carbamoyl)thiazole-5-sulfonimidamide] | 0.0275 |  | IC50 (THP-1 cells [1]; [3]): 0.008 to 0.04 µM |
| CC(C)(O)c1ncc(S(=O)(=NC(=O)Nc2c3c(cc4c2CC4)CCC3)NC#N)s1 (single isomer, unassigned) [Example 26, (R) or (S)-N-cyano-2-(2-hydroxypropan-2-yl)-N′-((2,4,5,6-tetrahydro-1H-cyclobuta[f]inden-3-yl)carbamoyl)thiazole-5-sulfonimidamide] | 0.0135 | 0.008 to 0.04 |  |
| CC(C)(O)c1ncc(S(=O)(=NC(=O)Nc2c3c(cc4c2CCC4)CCC3)NC#N)s1 (single isomer, unassigned) [Example 27, (S) or (R)-N-cyano-N′-((1,2,3,5,6,7-hexahydro-s-indacen-4-yl)carbamoyl)-2-(2-hydroxypropan-2-yl)thiazole-5-sulfonimidamide] | 0.0928 | 0.04 to 0.2 |  |
| CC(C)(O)c1ncc(S(=O)(=NC(=O)Nc2c3c(cc4c2CCC4)CCC3)NC#N)s1 (single isomer, unassigned) [Example 28, (R) or (S)-N-cyano-N′-((1,2,3,5,6,7-hexahydro-s-indacen-4-yl)carbamoyl)-2-(2-hydroxypropan-2-yl)thiazole-5-sulfonimidamide] | 0.0308 | 0.008 to 0.04 |  |
| CC(C)(O)c1coc(S(=O)(=NC(=O)Nc2c3c(cc4c2CCC4)CCC3)NC#N)c1 (single isomer, unassigned) [Example 29, (R) or (S)-N-cyano-N′-(1,2,3,5,6,7-hexahydro-s-indacen-4-ylcarbamoyl)-4-(2-hydroxypropan-2-yl)furan-2-sulfonimidamide] | 0.0582 | 0.04 to 0.2 |  |
| CC(C)(O)c1coc(S(=O)(=NC(=O)Nc2c3c(cc4c2CCC4)CCC3)NC#N)c1 (single isomer, unassigned) [Example 30, (S) or (R)-N-cyano-N′-((1,2,3,5,6,7-hexahydro-s-indacen-4-yl)carbamoyl)-4-(2-hydroxypropan-2-yl)furan-2-sulfonimidamide] | 0.0167 | 0.008 to 0.04 |  |
| CC(C)(O)c1cccc(S(=O)(=NC(=O)Nc2c3c(cc4c2CCC4)CCC3)NC#N)c1 (single isomer, unassigned) [Example 31, (S) or (R)-N-cyano-N′-((1,2,3,5,6,7-hexahydro-s-indacen-4-yl)carbamoyl)-3-(2-hydroxypropan-2-yl)benzenesulfonimidamide] | 0.0338 | 0.008 to 0.04 |  |
| CC(C)(O)c1cccc(S(=O)(=NC(=O)Nc2c3c(cc4c2CCC4)CCC3)NC#N)c1 (single isomer, unassigned) [Example 32, (R) or (S)-N-cyano-N′-((1,2,3,5,6,7-hexahydro-s-indacen-4-yl)carbamoyl)-3-(2-hydroxypropan-2-yl)benzenesulfonimidamide] | 0.0795 | 0.04 to 0.2 |  |
| N#CNS(=O)(=NC(=O)Nc1c2c(cc3c1CCC3)CCC2)c1ccccc1 (single isomer, unassigned) [Example 33, (S) or (R)-N-cyano-N′-((1,2,3,5,6,7-hexahydro-s-indacen-4-yl)carbamoyl)benzenesulfonimidamide] | 1.53 | 1 to 5 |  |
| N#CNS(=O)(=NC(=O)Nc1c2c(cc3c1CCC3)CCC2)c1ccccc1 (single isomer, unassigned) [Example 34, (R) or (S)-N-cyano-N′-((1,2,3,5,6,7-hexahydro-s-indacen-4-yl)carbamoyl)benzenesulfonimidamide] | 0.355 | 0.2 to 1 |  |
| NS(=O)(=NC(=O)Nc1c2c(nc(C3CC3)c1C1CC1)CCC2)c1ccn(C2CC2)n1 (single isomer, unassigned) [Example 878, (R) or (S)-1-cyclopropyl-N′-((2,3-dicyclopropyl-6,7-dihydro-5H-cyclopenta[b]pyridin-4-yl)carbamoyl)-1H-pyrazole-3-sulfonimidamide] |  |  | IC50 (THP-1 cells [2]; class symbol): 0.04 to 0.2 µM; IC50 (THP-1 cells [2]; numeric value): 0.088 µM |
| NS(=O)(=NC(=O)Nc1c2c(nc(C3CC3)c1C1CC1)CCC2)c1ccn(C2CC2)n1 (single isomer, unassigned) [Example 879, (S) or (R)-1-cyclopropyl-N′-((2,3-dicyclopropyl-6,7-dihydro-5H-cyclopenta[b]pyridin-4-yl)carbamoyl)-1H-pyrazole-3-sulfonimidamide] |  |  | IC50 (THP-1 cells [2]; class symbol): 1 to 5 µM; IC50 (THP-1 cells [2]; numeric value): 4.43 µM |
| NS(=O)(=NC(=O)Nc1c2c(nc(C(F)(F)F)c1C1CC1)CCC2)c1nn(C2CC2)cc1F (single isomer, unassigned) [Example 880, (R) or (S)-1-cyclopropyl-N′-((3-cyclopropyl-2-(trifluoromethyl)-6,7-dihydro-5H-cyclopenta [b]pyridin-4-yl)carbamoyl)-4-fluoro-1H-pyrazole-3-sulfonimidamide] |  |  | IC50 (THP-1 cells [2]; class symbol): 0.04 to 0.2 µM; IC50 (THP-1 cells [2]; numeric value): 0.0539 µM |
| NS(=O)(=NC(=O)Nc1c2c(nc(C(F)(F)F)c1C1CC1)CCC2)c1nn(C2CC2)cc1F (single isomer, unassigned) [Example 881, (S) or (R)-1-cyclopropyl-N′-((3-cyclopropyl-2-(trifluoromethyl)-6,7-dihydro-5H-cyclopenta [b]pyridin-4-yl)carbamoyl)-4-fluoro-1H-pyrazole-3-sulfonimidamide] |  |  | IC50 (THP-1 cells [2]; class symbol): 1 to 5 µM; IC50 (THP-1 cells [2]; numeric value): 1.41 µM |
| NS(=O)(=NC(=O)Nc1c2c(nc(C3CC3)c1C1CC1)CCC2)c1nn(C2CC2)cc1F (single isomer, unassigned) [Example 882, (R) or (S)-1-cyclopropyl-N′-((2,3-dicyclopropyl-6,7-dihydro-5H-cyclopenta[b]pyridin-4-yl)carbamoyl)-4-fluoro-1H-pyrazole-3-sulfonimidamide] |  |  | IC50 (THP-1 cells [2]; class symbol): 0.04 to 0.2 µM; IC50 (THP-1 cells [2]; numeric value): 0.102 µM |
| NS(=O)(=NC(=O)Nc1c2c(nc(C(F)(F)F)c1C1CC1)CCC2)c1ccn(C2CC2)n1 (single isomer, unassigned) [Example 898, (R) or (S)-1-cyclopropyl-N′-((3-cyclopropyl-2-(trifluoromethyl)-6,7-dihydro-5H-cyclopenta [b]pyridin-4-yl)carbamoyl)-1H-pyrazole-3-sulfonimidamide] |  |  | IC50 (THP-1 cells [1]; [6]): 0.04 to 0.2 µM; IC50 (THP-1 cells [1]; [7]): 0.114 µM |
| CC(C)(O)c1ncc(S(=O)(=NC(=O)Nc2c3c(cc4c2CCC4)CCC3)NC#N)s1 (centres unmarked) [Example 3, N-cyano-N′-((1,2,3,5,6,7-hexahydro-s-indacen-4-yl)carbamoyl)-2-(2-hydroxypropan-2-yl)thiazole-5-sulfonimidamide] |  |  | IC50 (THP-1 cells [1]; [3]): 0.04 to 0.2 µM; IC50 (THP-1 cells [1]; [8]): 0.034 µM |
| CC(C)(O)c1nc(CO)c([S@](=O)(=NC(=O)Nc2c3c(nc4c2CCC4(C)C)CCC3)NC#N)s1 [Example 12, (S) or-N-cyano-N′-((3,3-dimethyl-1,2,3,5,6,7-hexahydrodicyclopenta[b,e]pyridin-8-yl)carbamoyl)-4-(hydroxymethyl)-2-(2-hydroxypropan-2-yl)thiazole-5-sulfonimidamide] |  |  | IC50 (THP-1 cells [1]; [3]): 0.04 to 0.2 µM; IC50 (THP-1 cells [1]; [8]): 0.419 µM |
| NS(=O)(=NC(=O)Nc1c2c(nc(C(F)(F)F)c1C1CC1)CCC2)c1ccn(C2CC2)n1 (centres unmarked) [Example 873, 1-Cyclopropyl-N′-((3-cyclopropyl-2-(trifluoromethyl)-6,7-dihydro-5H-cyclopenta[b]pyridin-4-yl)carbamoyl)-1H-pyrazole-3-sulfonimidamide] |  |  | IC50 (THP-1 cells [1]; [6]): 0.04 to 0.2 µM; IC50 (THP-1 cells [1]; [7]): 0.128 µM |
| NS(=O)(=NC(=O)Nc1c2c(nc(C3CC3)c1C1CC1)CCC2)c1ccn(C2CC2)n1 (centres unmarked) [Example 877, 1-Cyclopropyl-N′-((2,3-dicyclopropyl-6,7-dihydro-5H-cyclopenta[b]pyridin-4-yl)carbamoyl)-1H-pyrazole-3-sulfonimidamide] |  |  | IC50 (THP-1 cells [1]; [6]): 0.04 to 0.2 µM; IC50 (THP-1 cells [1]; [7]): 0.154 µM |
